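48-hour exposure; five concentrations; linearly interpolated endpoints. GI50 is the concentration that inhibits growth by half.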 Calls of active or inactive are those of the source. No stated cut-off is given here; in the data, active = GI50 up to about 1.1 µM and inactive = higher.
Key:
Assay in all cases: NCI-60 cell line screen, 48 h
[1] = system: IGROV-1
[2] = system: SNB-75
[3] = system: BT-549
[4] = system: UO-31
[5] = system: K562
[6] = system: KM12
[7] = system: ACHN
[8] = system: SF-295
[9] = system: SF-268
[10] = system: 786-0
[11] = system: HOP-62
[12] = system: CCRF-CEM
[13] = system: MOLT-4
[14] = system: NCI-H460
[15] = system: SNB-19
[16] = system: COLO 205
[17] = system: HOP-92
[18] = system: OVCAR-8
[19] = system: SN12C
[20] = system: TK-10
[21] = system: SK-OV-3
[22] = system: HCT-15
[23] = system: NCI-H226
[24] = system: CAKI-1
[25] = system: NCI/ADR-RES
[26] = system: Hs-578T
[27] = system: HT-29
[28] = system: M14
[29] = system: SK-MEL-5
[30] = system: RPMI-8226
[31] = system: SK-MEL-2
[32] = system: EKVX
[33] = system: SR
[34] = system: DU-145
[35] = system: RXF 393
[36] = system: A549
[37] = system: T47D
[38] = system: SF-539
[39] = system: Malme-3M
[40] = system: UACC-257
[41] = system: SW-620
[42] = system: SK-MEL-28
[43] = system: HCT-116
[44] = system: PC-3
[45] = system: MCF7
[46] = system: MDA-MB-435
[47] = system: HL-60
[48] = system: OVCAR-4
[49] = system: MDA-MB-231
[50] = system: OVCAR-3
[51] = system: NCI-H522
[52] = system: LOX IMVI
[53] = system: OVCAR-5
[54] = system: U-251
[55] = system: A498
[56] = system: UACC-62
[57] = system: MDA-N
[58] = system: HCC 2998
[59] = system: NCI-H23

Question: Which GI50 [1] does the source give for `COc1nc2ncc([C@@H](OC(C)=O)[C@@H](COC(C)=O)OC(C)=O)nc2c(=O)n1C` here?
Answer: Its GI50 is > 100 µM (inactive).

Question: And the GI50 [2]?
Answer: Its GI50 is > 100 µM (inactive).

Question: What about the GI50 [3] of the same compound?
Answer: The GI50 was > 100 µM (inactive).

Question: What about the GI50 [4] of the same compound?
Answer: Its GI50 is > 100 µM (inactive).

Question: And the GI50 [5]?
Answer: The GI50 was > 100 µM (inactive).

Question: What about the GI50 [6] of the same compound?
Answer: Its GI50 is > 100 µM (inactive).

Question: And the GI50 [7]?
Answer: The GI50 was > 100 µM (inactive).

Question: What about the GI50 [8] of the same compound?
Answer: Its GI50 is > 100 µM (inactive).

Question: What about the GI50 [9] of the same compound?
Answer: The GI50 was > 100 µM (inactive).

Question: What about the GI50 [10] of the same compound?
Answer: Its GI50 is > 100 µM (inactive).

Question: What about the GI50 [11] of the same compound?
Answer: The GI50 was > 100 µM (inactive).

Question: And the GI50 [12]?
Answer: The GI50 was 58.1 µM (inactive).

Question: And the GI50 [13]?
Answer: Its GI50 is > 100 µM (inactive).

Question: What about the GI50 [14] of the same compound?
Answer: The GI50 was > 100 µM (inactive).

Question: And the GI50 [15]?
Answer: Its GI50 is > 100 µM (inactive).

Question: What about the GI50 [16] of the same compound?
Answer: The GI50 was > 100 µM (inactive).

Question: What about the GI50 [17] of the same compound?
Answer: The GI50 was > 100 µM (inactive).

Question: What about the GI50 [18] of the same compound?
Answer: The GI50 was > 100 µM (inactive).

Question: What about the GI50 [19] of the same compound?
Answer: The GI50 was > 100 µM (inactive).

Question: And the GI50 [20]?
Answer: Its GI50 is > 100 µM (inactive).

Question: What about the GI50 [21] of the same compound?
Answer: Its GI50 is > 100 µM (inactive).

Question: And the GI50 [22]?
Answer: The GI50 was over 100 µM.

Question: And the GI50 [23]?
Answer: The GI50 was > 100 µM (inactive).

Question: What about the GI50 [24] of the same compound?
Answer: Its GI50 is > 100 µM (inactive).

Question: What about the GI50 [25] of the same compound?
Answer: Its GI50 is > 100 µM (inactive).

Question: What about the GI50 [26] of the same compound?
Answer: Its GI50 is > 100 µM (inactive).

Question: And the GI50 [27]?
Answer: The GI50 was > 100 µM (inactive).

Question: And the GI50 [28]?
Answer: The GI50 was > 100 µM (inactive).

Question: What about the GI50 [29] of the same compound?
Answer: The GI50 was > 100 µM (inactive).

Question: And the GI50 [30]?
Answer: The GI50 was 96.8 µM (inactive).

Question: What about the GI50 [31] of the same compound?
Answer: Its GI50 is > 100 µM (inactive).

Question: What about the GI50 [32] of the same compound?
Answer: The GI50 was > 100 µM (inactive).

Question: And the GI50 [33]?
Answer: The GI50 was > 100 µM (inactive).

Question: And the GI50 [34]?
Answer: The GI50 was > 100 µM (inactive).

Question: And the GI50 [35]?
Answer: Its GI50 is > 100 µM (inactive).

Question: What about the GI50 [36] of the same compound?
Answer: Its GI50 is > 100 µM (inactive).

Question: What about the GI50 [37] of the same compound?
Answer: The GI50 was > 100 µM (inactive).

Question: What about the GI50 [38] of the same compound?
Answer: The GI50 was > 100 µM (inactive).

Question: What about the GI50 [39] of the same compound?
Answer: Its GI50 is > 100 µM (inactive).

Question: And the GI50 [40]?
Answer: Its GI50 is > 100 µM (inactive).

Question: What about the GI50 [41] of the same compound?
Answer: Its GI50 is > 100 µM (inactive).

Question: What about the GI50 [42] of the same compound?
Answer: The GI50 was > 100 µM (inactive).

Question: And the GI50 [43]?
Answer: Its GI50 is > 100 µM (inactive).

Question: And the GI50 [44]?
Answer: Its GI50 is > 100 µM (inactive).

Question: What about the GI50 [45] of the same compound?
Answer: The GI50 was > 100 µM (inactive).

Question: What about the GI50 [46] of the same compound?
Answer: Its GI50 is > 100 µM (inactive).

Question: What about the GI50 [47] of the same compound?
Answer: The GI50 was 24.3 µM (inactive).

Question: And the GI50 [48]?
Answer: Its GI50 is 48 µM (inactive).

Question: And the GI50 [49]?
Answer: The GI50 was > 100 µM (inactive).

Question: And the GI50 [50]?
Answer: The GI50 was > 100 µM (inactive).

Question: And the GI50 [51]?
Answer: Its GI50 is 57.5 µM (inactive).

Question: And the GI50 [52]?
Answer: Its GI50 is > 100 µM (inactive).

Question: What about the GI50 [53] of the same compound?
Answer: Its GI50 is > 100 µM (inactive).

Question: What about the GI50 [54] of the same compound?
Answer: The GI50 was > 100 µM (inactive).

Question: And the GI50 [55]?
Answer: The GI50 was > 100 µM (inactive).

Question: What about the GI50 [56] of the same compound?
Answer: The GI50 was > 100 µM (inactive).

Question: And the GI50 [57]?
Answer: The GI50 was > 100 µM (inactive).

Question: `O=C(CCc1ccc(O)cc1)NCCc1cccc(OCc2ccccc2)c1` was tested. Which GI50 [1] did it give?
Answer: The GI50 was 28.5 µM (inactive).

Question: What about the GI50 [3] of the same compound?
Answer: Its GI50 is 16.7 µM (inactive).

Question: And the GI50 [4]?
Answer: The GI50 was 12.7 µM (inactive).

Question: What about the GI50 [5] of the same compound?
Answer: The GI50 was 17.9 µM (inactive).

Question: What about the GI50 [6] of the same compound?
Answer: The GI50 was 25.4 µM (inactive).

Question: And the GI50 [7]?
Answer: Its GI50 is 33.2 µM (inactive).

Question: And the GI50 [8]?
Answer: The GI50 was 30.3 µM (inactive).

Question: What about the GI50 [9] of the same compound?
Answer: Its GI50 is 26.5 µM (inactive).

Question: What about the GI50 [10] of the same compound?
Answer: The GI50 was 40.4 µM (inactive).

Question: And the GI50 [11]?
Answer: The GI50 was 29.6 µM (inactive).

Question: What about the GI50 [12] of the same compound?
Answer: Its GI50 is 2.96 µM (inactive).

Question: What about the GI50 [13] of the same compound?
Answer: The GI50 was 14 µM (inactive).

Question: What about the GI50 [14] of the same compound?
Answer: Its GI50 is 22.8 µM (inactive).

Question: And the GI50 [15]?
Answer: Its GI50 is 69 µM (inactive).

Question: And the GI50 [16]?
Answer: The GI50 was 49.4 µM (inactive).

Question: And the GI50 [17]?
Answer: The GI50 was 23.6 µM (inactive).

Question: And the GI50 [18]?
Answer: The GI50 was 26.2 µM (inactive).

Question: And the GI50 [19]?
Answer: Its GI50 is 75.3 µM (inactive).

Question: And the GI50 [20]?
Answer: Its GI50 is 28.6 µM (inactive).

Question: And the GI50 [21]?
Answer: Its GI50 is 27.7 µM (inactive).

Question: What about the GI50 [22] of the same compound?
Answer: Its GI50 is 29 µM.

Question: What about the GI50 [23] of the same compound?
Answer: The GI50 was 29 µM (inactive).

Question: What about the GI50 [24] of the same compound?
Answer: Its GI50 is 48 µM (inactive).

Question: What about the GI50 [58] of the same compound?
Answer: The GI50 was 24.4 µM (inactive).

Question: What about the GI50 [25] of the same compound?
Answer: The GI50 was 28.1 µM (inactive).

Question: What about the GI50 [26] of the same compound?
Answer: Its GI50 is 35.3 µM (inactive).

Question: And the GI50 [27]?
Answer: The GI50 was 19.5 µM (inactive).

Question: And the GI50 [28]?
Answer: Its GI50 is 17.8 µM (inactive).

Question: What about the GI50 [59] of the same compound?
Answer: Its GI50 is 24.4 µM (inactive).

Question: And the GI50 [29]?
Answer: The GI50 was 17.4 µM (inactive).

Question: And the GI50 [31]?
Answer: Its GI50 is 17.3 µM (inactive).

Question: And the GI50 [32]?
Answer: The GI50 was 31.5 µM (inactive).

Question: What about the GI50 [33] of the same compound?
Answer: Its GI50 is 15.4 µM (inactive).

Question: And the GI50 [34]?
Answer: The GI50 was 30.8 µM (inactive).

Question: And the GI50 [35]?
Answer: Its GI50 is 15.8 µM (inactive).

Question: What about the GI50 [36] of the same compound?
Answer: The GI50 was 40.1 µM (inactive).

Question: And the GI50 [37]?
Answer: The GI50 was 21.7 µM (inactive).

Question: And the GI50 [38]?
Answer: Its GI50 is 16.5 µM (inactive).

Question: What about the GI50 [39] of the same compound?
Answer: Its GI50 is 27.7 µM (inactive).

Question: And the GI50 [40]?
Answer: The GI50 was 17.6 µM (inactive).

Question: What about the GI50 [42] of the same compound?
Answer: Its GI50 is 22.7 µM (inactive).

Question: And the GI50 [43]?
Answer: The GI50 was 21.8 µM (inactive).

Question: And the GI50 [44]?
Answer: Its GI50 is 20.1 µM (inactive).

Question: And the GI50 [45]?
Answer: The GI50 was 27.9 µM (inactive).

Question: And the GI50 [46]?
Answer: Its GI50 is 18.1 µM (inactive).

Question: And the GI50 [47]?
Answer: Its GI50 is 16.6 µM (inactive).

Question: And the GI50 [48]?
Answer: Its GI50 is 31.6 µM (inactive).

Question: What about the GI50 [49] of the same compound?
Answer: Its GI50 is 29 µM (inactive).

Question: And the GI50 [50]?
Answer: The GI50 was 17.2 µM (inactive).

Question: And the GI50 [51]?
Answer: The GI50 was 32.9 µM (inactive).

Question: And the GI50 [52]?
Answer: Its GI50 is 15.6 µM (inactive).

Question: And the GI50 [53]?
Answer: The GI50 was 43.5 µM (inactive).

Question: What about the GI50 [54] of the same compound?
Answer: Its GI50 is 22.7 µM (inactive).

Question: And the GI50 [55]?
Answer: Its GI50 is 55.8 µM (inactive).

Question: What about the GI50 [56] of the same compound?
Answer: Its GI50 is 14.1 µM (inactive).

Question: And the GI50 [57]?
Answer: Its GI50 is 25.1 µM (inactive).

From ChEMBL document CHEMBL1201862, “PubChem BioAssay data set” (2004)
